Source: patent US20260317310A1, “BENZO SIX-MEMBERED HETEROCYCLIC GSPT1 PROTEIN DEGRADATION AGENT AND USE THEREOF” (China Pharmaceutical University, priority 2023, published 2026)
Entries after “also recorded” stand apart in the source; their conditions may differ.

Experiments:
[1] = In vivo pharmacokinetic study in rats (IV and PO); set-up: species or system rat (SD); conditions: rat; for bioavailability: plasma, PO 10 mg/kg (IV 2 mg/kg); for clearance rate relative to CC-90009 / half-life relative to CC-90009 / initial plasma concentration relative to CC-90009 / plasma drug exposure level relative to CC-90009: IV
Experimental: Sample collection and preparation: After SPF SD rats (male, 210-230 g, 42-48 days, RILD Liver) in a good growth state were dosed intravenously at 2 mg/kg and orally at 10 mg/kg, blood samples were collected via the orbit at different blood collection time points and transferred to centrifuge tubes containing an anticoagulant; the intravenous blood collection time points were 0.08 hours, 0.25 hours, 0.5 hours, 1 hour, 2 hours, 4 hours, 6 hours, 8 hours, and 24 hours, and the oral blood collection time points were 0.25 hours, 0.5 hours, 1 hour, 2 hours, 4 hours, 6 hours, 8 hours, and 24 hours. The blood samples were immediately centrifuged at 4° C. and 8000 rpm for 10 minutes, and the plasma was collected and stored in an ultra-low-temperature freezer at −80° C. until it was analyzed by LC-MS/MS.
Pharmacokinetic data analysis: Pharmacokinetic parameters of the compounds were calculated using pharmacokinetic software in a non-compartmental model. The peak plasma concentration (Cmax) and the time to reach the peak plasma concentration (Tmax) were taken as observation values. Parameters such as the half-life T1/2, the areas under the plasma concentration-time curve AUClast and AUCinf, the apparent volume of distribution Vss, and the clearance rate CL were determined through regression analysis of the linear terminal portion of the logarithmic plasma concentration-time curve and the linear trapezoidal rule.

[2] = Metabolic stability in in vitro rat liver microsomes; type: in vitro ADME; conditions: NADPH, 37° C.
Description: RLMs were purchased from RILD Liver.

GSPT1 [3] = target: T1, GSPT1 (Homo sapiens, UniProt P15170); assay: Degradation of GSPT1 in MV4-11 cells (FIG. 1C, 1D); type: cell-based; set-up: endogenous in cells; conditions: FIGS. 1 and 2
T1 sequence (P15170 whole entry): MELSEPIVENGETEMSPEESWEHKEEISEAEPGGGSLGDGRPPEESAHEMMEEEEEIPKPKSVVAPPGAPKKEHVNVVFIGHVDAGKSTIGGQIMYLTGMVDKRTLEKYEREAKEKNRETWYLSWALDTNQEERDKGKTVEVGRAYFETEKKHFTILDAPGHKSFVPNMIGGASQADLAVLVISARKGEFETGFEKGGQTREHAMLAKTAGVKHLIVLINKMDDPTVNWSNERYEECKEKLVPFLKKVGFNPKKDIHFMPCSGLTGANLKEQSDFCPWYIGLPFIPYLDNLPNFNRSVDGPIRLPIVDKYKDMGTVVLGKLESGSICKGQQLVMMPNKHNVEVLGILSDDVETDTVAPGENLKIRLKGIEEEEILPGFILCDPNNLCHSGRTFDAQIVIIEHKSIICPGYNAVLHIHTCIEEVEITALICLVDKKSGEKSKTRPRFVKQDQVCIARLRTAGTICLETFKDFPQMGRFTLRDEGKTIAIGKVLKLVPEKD

GSPT1 [4] = target: T1, GSPT1; assay: Degradation of GSPT1 in KG-1 cells (immunoblot, 200 nM, 4 h); type: cell-based; set-up: endogenous in cells; host or cells: KG-1; conditions: FIGS. 1 and 2
Experimental: KG-1 cells (ATCC) were grown in an IMDM culture medium (containing 20% FBS). After centrifugation and counting, the cell concentration was adjusted. The cells were plated onto 6-well plates at 10^6 cells/well, with 1350 μL per well. 150 μL of DMSO and the test compounds of the present disclosure (compound concentration: 200 nM) were added. The plates were incubated in an incubator at 37° C. with 5% CO2 for 4 hours. The cells were centrifuged, and the culture medium was discarded. PBS was added to wash the cells and then discarded. Whole cell lysates were prepared using a protease inhibitor cocktail (100×, Fude Biological), a protein phosphatase inhibitor cocktail (100×, Fude Biological), SuperNuclease (Beyotime), and a high-intensity RIPA lysis buffer (Thermo Fisher) and placed on ice for 30 minutes. After centrifugation, the cell debris precipitates were discarded, and the whole cell lysate supernatants were collected and transferred to new centrifuge tubes. After a BCA protein assay, samples were prepared using a 5× loading buffer (Thermo Fisher). […] Signals were detected using a MINICHEMI™ imaging system. […]

MV411 xenograft = assay: In vivo pharmacodynamic study in MV411 acute myeloid leukemia xenograft mouse model; set-up: species or system human leukemia cells in BABL/c Nude mouse
Experimental: (§1) The human leukemia cells MV411 (Cell Bank, Chinese Academy of Sciences) used in this experiment were cultured in an IMDM culture medium supplemented with 10% FBS in an incubator containing CO2 at 37° C. Before the cells were continuously sub-cultured to the tenth generation, MV411 cells in the logarithmic growth phase were used, and the cell concentration was adjusted to 1×10^8 cells/mL with a serum-free culture medium. Each BABL/c Nude mouse (Jiangsu GemPharmatech Co., Ltd., female, 4-6 weeks old, 14-16 g) was inoculated with […] of the cell suspension by subcutaneous injection on the right dorsal side (near the axilla) under sterile conditions. When the mean tumor volume of the tumor-bearing mice reached approximately 100 mm^3, the mice were randomly divided into groups, with the tumor volume in each group being roughly the same. The day of grouping and administration was defined as day 0. The animals in each treatment group were given a compound once daily by oral gavage at 15 mg/kg, 30 mg/kg, or 60 mg/kg. The body weight and tumor volume of the animals were measured every other day.
Experimental indicator: The anti-tumor efficacy of the compounds was evaluated using the relative tumor growth inhibition rate (TGI). Tumor weight TGI (%)={1−[(final average tumor weight of experimental group)/(final average tumor weight of control group of tumor-bearing mice without administration)]}×100%. Tumor volume TGI (%)=[1−relative tumor volume of experimental group/relative tumor volume of control group of tumor-bearing mice without administration]×100%.

22RV1 xenograft = assay: In vivo pharmacodynamic study in 22RV1 prostate cancer xenograft mouse model; set-up: species or system 22RV1 cells in BABL/c Nude mouse
Experimental: The 22RV1 cells (Cell Bank, Chinese Academy of Sciences) used in this experiment were cultured in a 1640 culture medium supplemented with 10% FBS in an incubator containing CO2 at 37° C. Before the cells were continuously sub-cultured to the tenth generation, 22RV1 cells in the logarithmic growth phase were used, and the cell concentration was adjusted to 5×10^7 cells/mL with a serum-free culture medium. Each BABL/c Nude mouse was inoculated with […] of the cell suspension by subcutaneous injection on the right dorsal side (near the axilla) under sterile conditions. When the mean tumor volume of the tumor-bearing mice reached approximately 50-100 mm^3, the mice were randomly divided into 4 groups of 8, with the tumor volume in each group being roughly the same. The day of grouping and administration was defined as day 0. The animals in each treatment group were given a compound once daily by oral gavage at 60 mg/kg.
The body weight and tumor volume of the animals were measured every other day.
Experimental indicator: The anti-tumor efficacy of the compounds was evaluated using the relative tumor growth inhibition rate (TGI). Tumor weight TGI (%)={1−[(final average tumor weight of experimental group)/(final average tumor weight of control group of tumor-bearing mice without administration)]}×100%.

[5] = Body weight in MV411 xenograft mice; type: in vivo, BABL/c Nude mouse; conditions: A-10 15, 30, 60 mg/kg, A-42 60 mg/kg, oral
Experimental: as §1

GSPT1 [6] = target: T1, GSPT1; assay: Time-dependent degradation of GSPT1 in AML cells (FIG. 2); type: cell-based; set-up: KG-1 cells (ATCC) were grown in an IMDM culture medium; endogenous in cells; host or cells: KG-1
KG-1 cells = assay: Antiproliferative activity against KG-1 cells (CCK8, 72 h); type: cell-based; conditions: Homo sapiens
Experimental: KG-1 cells in the logarithmic growth phase were diluted in a culture medium (RPMI+10% FBS) and plated onto 96-well plates at 5000 cells/well, and the plates were incubated in an incubator at 37° C. with 5% CO2 for 24 hours. 10 mM stock solutions of the test compounds of the present disclosure in DMSO were prepared and diluted with the culture medium to set 9 concentration gradients. Three replicate wells were set for each concentration. After compound addition, the plates were incubated in an incubator at 37° C. with 5% CO2 for 72 hours. The cell proliferation was assessed using the CCK8 method. The cell growth inhibition IC50 values of the compounds were determined using an enzyme labeling method. The IC50 values were calculated using GraphPad Prism 7 software.
The antiproliferative activity of the compounds against KG-1 cells is shown in Table 2, where A represents IC50<1 nM, B represents 1<IC50<10 nM, C represents 10 nM≤IC50<100 nM, D represents 100 nM≤IC50<1000 nM, and E represents IC50≥1000 nM.

[7] = 60 mg/kg once daily oral gavage

O=C1CCC(N2Cc3cc(CNC(=O)C(F)(F)c4ccc(Cl)cc4)ccc3C2=O)C(=O)N1 (centres unmarked) [CC-90009, reference compound]
bioavailability [1]: 31.2 ± 9.1%

O=C1CCC(N2Cc3cc(CNC(=O)C4=Cc5ccccc5OC4)ccc3C2=O)C(=O)N1 (centres unmarked) [Compound A-1, N-((2-(2,6-Dioxopiperidin-3-yl)-1-oxoisoindolin-5-yl)methyl)-2H-chromene-3-carboxamide]
RLM CL [2]: 3.75 µL/min/mg
RLM T1/2 [2]: 6.1657 h
bioavailability [1]: 19.3 ± 3.4%
clearance rate relative to CC-90009 ([1]; compared to CC-90009): less than that of the clinical drug CC-90009
half-life relative to CC-90009 ([1]; compared to CC-90009): close to that of CC-90009
initial plasma concentration relative to CC-90009 ([1]; compared to CC-90009): greatly superior to those of CC-90009
plasma drug exposure level relative to CC-90009 ([1]; compared to CC-90009): greatly superior to those of CC-90009
dependence of GSPT1 degradation on concentration and time (GSPT1 [3]): concentration-dependent and time-dependent; also recorded: more significant than that of CC-90009
dependence of GSPT1 degradation on concentration and time (GSPT1 [4]): concentration-dependent and time-dependent; also recorded: more significant than that of CC-90009

O=C1CCC(N2Cc3cc(CNC(=O)C4=Cc5cc(OC(F)(F)F)ccc5OC4)ccc3C2=O)C(=O)N1 (centres unmarked) [Compound A-10, N-((2-(2,6-Dioxopiperidin-3-yl)-1-oxoisoindolin-5-yl)methyl)-6-trifluoromethoxy-2H-chromene-3-carboxamide]
bioavailability [1]: 22.9 ± 12.6%
clearance rate relative to CC-90009 ([1]; compared to CC-90009): one third of that of CC-90009
half-life relative to CC-90009 ([1]; compared to CC-90009): longer than that of CC-90009
initial plasma concentration relative to CC-90009 ([1]; compared to CC-90009): much higher than that of CC-90009
plasma drug exposure level relative to CC-90009 ([1]; compared to CC-90009): nearly four times that of CC-90009
exposure level relative to CC-90009 ([1]; oral, compared to CC-90009): nearly three times that of CC-90009
peak ([1]; oral, compared to CC-90009): relatively high peak
time to peak ([1]; oral, compared to CC-90009): relatively small time to peak
tumor weight TGI (MV411 xenograft; 15 mg/kg once daily oral gavage): 20.82%
tumor weight TGI (MV411 xenograft; 30 mg/kg once daily oral gavage): 56.61%
tumor weight TGI (MV411 xenograft; [7]): 59.76%
in vivo anti-tumor effect compared to CC-90009 (MV411 xenograft; MV411 xenograft, oral gavage, vs CC-90009): significantly better than that of the clinical molecule CC-90009
TGI (22RV1 xenograft; [7]): 95.10%
TGI compared to CC-90009 and enzalutamide (22RV1 xenograft; 22RV1 xenograft, 60 mg/kg oral gavage): significantly better than those of the clinical molecule CC-90009 and the commercially available drug enzalutamide
weight loss in mice [5]: no significant weight loss
dependence of GSPT1 degradation on concentration and time (GSPT1 [3]): concentration-dependent
dependence of GSPT1 degradation on concentration and time (GSPT1 [4]): concentration-dependent
time-dependent degradation of GSPT1 (GSPT1 [6]): time-dependent

Cc1cc2c(cc1Cl)C=C(C(=O)NCc1ccc3c(c1)CN(C1CCC(=O)NC1=O)C3=O)CO2 (centres unmarked) [Compound A-28]
IC50 (KG-1 cells): 10 to 100 nM

O=C1CCC(N2Cc3c(ccc(CNC(=O)C4=Cc5cc(OC(F)(F)F)ccc5OC4)c3F)C2=O)C(=O)N1 (centres unmarked) [Compound A-42, N-((2-(2,6-Dioxopiperidin-3-yl)-4-fluoro-1-oxoisoindolin-5-yl)methyl)-6-(trifluoromethoxy)-2H-chromene-3-carboxamide]
bioavailability [1]: 9.8 ± 1.5%
clearance rate relative to CC-90009 ([1]; compared to CC-90009): lower clearance rate
plasma drug exposure level relative to CC-90009 ([1]; compared to CC-90009): fourteen times
exposure level relative to CC-90009 ([1]; oral, compared to CC-90009): four times
in vivo anti-tumor effect compared to MRT-2359 (MV411 xenograft; MV411 xenograft, 60 mg/kg oral gavage, vs MRT-2359): comparable to that of the clinical molecule MRT-2359
weight loss in mice [5]: no significant weight loss
